The values that follow are results of earlier work, collected in publication PMC7992119 (Structure (London, England : 1993), 2019).

Where no end group is shown, it is not given here. The star is where a group is joined. Octanoyl = CCCCCCCC(=O)*

The test system of series [1] is GHSR. Conditions: ref Bednarek et al., 2000.
The next series deals with ET-B. Conditions: mutation of known crystal contacts; ref Shihoya et al., 2016.
In series [2] the test system is GHSR.

With des-acyl ghrelin, in the series on GHSR [1], the “activity at GHSR of des-acyl versus lipidated form” value is listed as “only the lipidated form is active at GHSR”.

As to endothelin-1, the “maximal decrease of binding” value with ET-B is on record as at most 10 fold.

“ghrelin: 28-amino acid peptide with n-octanoylation at its Ser^3 residue (GSS(Octanoyl)FLSPEHQRVQQRKESKKPPAKLQPR; UniProt Q9UBU3 24-51, looked up)”: in the series with GHSR [2] (C terminus of ghrelin (beyond residue 17), ref Bednarek et al., 2000), the “affinity of the C terminus for the receptor” value was “the C terminus has no affinity for the receptor and does not enhance ligand binding over truncated variants”. The “affinity to GHSR versus the membrane” value in the series on GHSR [2] (qualitative statement, no reference given) is “much higher than to the membrane”.
